Source: patent publication US11000033B2, “Ketone or oxime compound, and herbicide” (NISSAN CHEMICAL CORPORATION, priority 2014, dated 2021)

Legend:
Format in all cases: in vivo
[1] = test system: Stellaria media; experiment: Test Example 5: herbicidal effect by foliage application, plastic box (symbol P); settings: 320 g/ha, 3 weeks after application
In short: (§1)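 Emulsion formulation, diluted with water to the intended rate, was applied uniformly to leaves by small sprayer. Recipients were 14-day greenhouse-grown seedlings (25° C. to 30° C.). Assessment followed at 3 weeks.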

[2] = test system: Abutilon theophrasti; experiment: Test Example 4: herbicidal effect by soil treatment (symbol M); settings: application herbicide amount 320 g/ha
In short: (§2)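 Seeds were sown in sterilized diluvial soil, covered with about 1.5 cm of soil, and the soil surface was sprayed with a water-diluted emulsion of the compound at a predetermined rate. Plants grew in a greenhouse at 25° C. to 30° C.; effects were scored visually 3 weeks after application.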

[3] = test system: Alopecurus myosuroides; experiment: Test Example 4: herbicidal effect by soil treatment (symbol J); settings: application herbicide amount 320 g/ha
In short: as §2

[4] = test system: Echinochloa oryzacola Vasing.; experiment: Test Example 2: herbicidal activity, application during weed generation in submerged conditions (symbol A); settings: Table 23; application herbicide amount 320 g/ha; grade 0-5 by criteria of Test Example 1
In short: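 Seeds sown in flooded alluvial soil (4 cm water) were grown in a 25-30° C greenhouse. At the one- to two-leaf stage, diluted emulsion of compound was applied to the water surface at a predetermined rate. Effect was scored 3 weeks later.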

[5] = test system: Chenopodium album; experiment: Test Example 4: herbicidal effect by soil treatment (symbol O); settings: application herbicide amount 320 g/ha
In short: as §2

[6] = test system: Avena fatua; experiment: Test Example 5: herbicidal effect by foliage application, plastic box (symbol I); settings: 320 g/ha, 3 weeks after application
In short: as §1

[7] = test system: Lolium multiflorum Lam.; experiment: Test Example 4: herbicidal effect by soil treatment (symbol K); settings: application herbicide amount 320 g/ha
In short: as §2

[8] = test system: Cyperus difformis; experiment: Test Example 3: herbicidal effect by foliage application, Wagner pot (symbol E); settings: application herbicide amount 320 g/ha
In short: (§3)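 Plants sown in submerged alluvial soil (water depth 0.1–0.5 cm) in a 25–30 °C greenhouse and grown 14 days. An emulsion of the compound diluted in water to a set herbicide amount was sprayed uniformly on foliage. Effect on each plant scored 3 weeks after application.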

[9] = test system: rice; experiment: Test Example 4: effect on crop by soil treatment (symbol b); settings: application herbicide amount 320 g/ha
In short: (§4)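 Crop seed is sown in spots together with several weed species in a box of sterilized diluvial soil. It is covered by about 1.5 cm of soil and kept in a greenhouse held between 25° C. and 30° C.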

[10] = test system: Galium spurium; experiment: Test Example 4: herbicidal effect by soil treatment (symbol Q); settings: application herbicide amount 320 g/ha
In short: as §2

[11] = test system: Setaria viridis; experiment: Test Example 4: herbicidal effect by soil treatment (symbol G); settings: application herbicide amount 320 g/ha
In short: as §2

[12] = test system: directly sowed rice plant; experiment: Test Example 3: effect on crop by foliage application, Wagner pot (symbol b); settings: application herbicide amount 320 g/ha
In short: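 Steps: fill a 1/10000-are Wagner pot with alluvial soil; add water and mix to submerge at 0.1–0.5 cm depth; sow rice plus Echinochloa crus-galli var. crus-galli, Leptochloa chinensis and Cyperus difformis; grow in a 25–30 °C greenhouse.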

[13] = test system: corn; experiment: Test Example 5: effect on crop by foliage application, plastic box (symbol c); settings: 320 g/ha, 3 weeks after application
In short: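 Crop and weed seeds sown in spots in sterilized diluvial soil in plastic boxes and covered with about 1.5 cm soil. Plants raised in a greenhouse at 25° C. to 30° C. for foliar application.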

[14] = test system: wheat; experiment: Test Example 4: effect on crop by soil treatment (symbol e); settings: application herbicide amount 320 g/ha
In short: as §4

[15] = test system: Avena fatua; experiment: Test Example 4: herbicidal effect by soil treatment (symbol I); settings: application herbicide amount 320 g/ha
In short: as §2

[16] = test system: Leptochloa chinensis; experiment: Test Example 3: herbicidal effect by foliage application, Wagner pot (symbol D); settings: application herbicide amount 320 g/ha
In short: as §3

[17] = test system: Chenopodium album; experiment: Test Example 5: herbicidal effect by foliage application, plastic box (symbol O); settings: 320 g/ha, 3 weeks after application
In short: as §1

[18] = test system: Amaranthus retroflexus; experiment: Test Example 4: herbicidal effect by soil treatment (symbol N); settings: application herbicide amount 320 g/ha
In short: as §2

SMILES | P: Stellaria media, herbicidal effect (criteria of Test Example 1) [1] | M: Abutilon theophrasti, herbicidal effect grade [2] | J: Alopecurus myosuroides, herbicidal effect grade [3] | Herbicidal effect grade, A: Echinochloa oryzacola Vasing. [4] | I: Avena fatua, herbicidal effect (criteria of Test Example 1) [6] | K: Lolium multiflorum Lam., herbicidal effect grade [7] | herbicidal effect on E, grade 0-5 [8] | b: directly sowed rice plant, effect on crop grade [9] | Q: Galium spurium, herbicidal effect grade [10] | G: Setaria viridis, herbicidal effect grade [11] | effect on crop b (directly sowed rice plant), grade 0-5 [12] | c: corn, effect on crop (criteria of Test Example 1) [13] | e: wheat, effect on crop grade [14] | I: Avena fatua, herbicidal effect grade [15] | herbicidal effect on D (Leptochloa chinensis), grade 0-5 [16] | O: Chenopodium album, herbicidal effect (criteria of Test Example 1) [17] | Herbicidal effect grade, M: Abutilon theophrasti [2] | Herbicidal effect grade, J: Alopecurus myosuroides [3] | Herbicidal effect grade, K: Lolium multiflorum Lam. [7] | Effect on crop grade, b: directly sowed rice plant [9] | other results
CON=C(C)CC1CC(OC(=O)SC(C)(C)C)=C(c2c(C)cc(-c3ccc(Cl)cc3)cc2C)C1=O (stereo not shown) [6-082] | 1 (Herbicidal ratio of 5% or higher and lower than 20%) | 2 (Herbicidal ratio of 20% or higher and lower than 40%) | 5 (Herbicidal ratio of 90% or more (almost completely withered)) | 4 (Herbicidal ratio of 70% or higher and lower than 90%) | 5 (Herbicidal ratio of 90% or more (almost completely withered)) | 5 (Herbicidal ratio of 90% or more (almost completely withered)) | 5 (Herbicidal ratio of 90% or more (almost completely withered)) | 1 (Herbicidal ratio of 5% or higher and lower than 20%) | 0 (Herbicidal ratio of 5% or lower (almost no effect)) | 5 (Herbicidal ratio of 90% or more (almost completely withered)) | 5 (Herbicidal ratio of 90% or more (almost completely withered)) | 5 (Herbicidal ratio of 90% or more (almost completely withered)) | 0 (Herbicidal ratio of 5% or lower (almost no effect)) | 3 (Herbicidal ratio of 40% or higher and lower than 70%) | 5 (Herbicidal ratio of 90% or more (almost completely withered)) | – | – | – | – | – | O: Chenopodium album, herbicidal effect grade [5]: 0 (Herbicidal ratio of 5% or lower (almost no effect))
CON=C(C)CC1CC(O)=C(c2c(C)cc(-c3ccc(OC(F)(F)F)cc3)cc2C)C1=O (mixture of isomers) [6-056] | 0 (Herbicidal ratio of 5% or lower (almost no effect)) | 0 (Herbicidal ratio of 5% or lower (almost no effect)) | 0 (Herbicidal ratio of 5% or lower (almost no effect)) | 1 (Herbicidal ratio of 5% or higher and lower than 20%) | 3 (Herbicidal ratio of 40% or higher and lower than 70%) | 0 (Herbicidal ratio of 5% or lower (almost no effect)) | 3 (Herbicidal ratio of 40% or higher and lower than 70%) | 1 (Herbicidal ratio of 5% or higher and lower than 20%) | 0 (Herbicidal ratio of 5% or lower (almost no effect)) | 2 (Herbicidal ratio of 20% or higher and lower than 40%) | 5 (Herbicidal ratio of 90% or more (almost completely withered)) | 1 (Herbicidal ratio of 5% or higher and lower than 20%) | 0 (Herbicidal ratio of 5% or lower (almost no effect)) | 0 (Herbicidal ratio of 5% or lower (almost no effect)) | 5 (Herbicidal ratio of 90% or more (almost completely withered)) | 3 (Herbicidal ratio of 40% or higher and lower than 70%) | – | – | – | – | N: Amaranthus retroflexus, herbicidal effect grade [18]: 0 (Herbicidal ratio of 5% or lower (almost no effect))
CC(=O)CC1CC(O)=C(c2c(C)cc(OCC(F)(F)F)cc2C)C1=O (stereo not shown) [7-015] | 1 (Herbicidal ratio of 5% or higher and lower than 20%) | – | – | 5 (Herbicidal ratio of 90% or more (almost completely withered)) | 5 (Herbicidal ratio of 90% or more (almost completely withered)) | – | 5 (Herbicidal ratio of 90% or more (almost completely withered)) | – | – | – | 5 (Herbicidal ratio of 90% or more (almost completely withered)) | 5 (Herbicidal ratio of 90% or more (almost completely withered)) | – | – | 5 (Herbicidal ratio of 90% or more (almost completely withered)) | 3 (Herbicidal ratio of 40% or higher and lower than 70%) | 0 (Herbicidal ratio of 5% or lower (almost no effect)) | 5 (Herbicidal ratio of 90% or more (almost completely withered)) | 5 (Herbicidal ratio of 90% or more (almost completely withered)) | 5 (Herbicidal ratio of 90% or more (almost completely withered)) | Herbicidal effect grade, Q: Galium spurium [10]: 0 (Herbicidal ratio of 5% or lower (almost no effect)); Herbicidal effect grade, G: Setaria viridis [11]: 5 (Herbicidal ratio of 90% or more (almost completely withered)); Herbicidal effect grade, N: Amaranthus retroflexus [18]: 0 (Herbicidal ratio of 5% or lower (almost no effect)); Effect on crop grade, e: wheat [14]: 4 (Herbicidal ratio of 70% or higher and lower than 90%); Herbicidal effect grade, I: Avena fatua [15]: 3 (Herbicidal ratio of 40% or higher and lower than 70%)
CC#Cc1cc(C)c(C2=C(O)CC(CC(C)=O)C2=O)c(C)c1 (stereo not shown) [7-010] | 0 (Herbicidal ratio of 5% or lower (almost no effect)) | – | – | 5 (Herbicidal ratio of 90% or more (almost completely withered)) | 4 (Herbicidal ratio of 70% or higher and lower than 90%) | – | 5 (Herbicidal ratio of 90% or more (almost completely withered)) | – | – | – | 5 (Herbicidal ratio of 90% or more (almost completely withered)) | 5 (Herbicidal ratio of 90% or more (almost completely withered)) | – | – | 5 (Herbicidal ratio of 90% or more (almost completely withered)) | 2 (Herbicidal ratio of 20% or higher and lower than 40%) | 4 (Herbicidal ratio of 70% or higher and lower than 90%) | 5 (Herbicidal ratio of 90% or more (almost completely withered)) | 5 (Herbicidal ratio of 90% or more (almost completely withered)) | 5 (Herbicidal ratio of 90% or more (almost completely withered)) | Herbicidal effect grade, Q: Galium spurium [10]: 0 (Herbicidal ratio of 5% or lower (almost no effect)); Herbicidal effect grade, G: Setaria viridis [11]: 5 (Herbicidal ratio of 90% or more (almost completely withered)); Herbicidal effect grade, N: Amaranthus retroflexus [18]: 0 (Herbicidal ratio of 5% or lower (almost no effect)); Effect on crop grade, e: wheat [14]: 4 (Herbicidal ratio of 70% or higher and lower than 90%); Herbicidal effect grade, I: Avena fatua [15]: 2 (Herbicidal ratio of 20% or higher and lower than 40%)
